Active and inactive are the calls of the source. No cut-off for these calls is given here. Some results are limits rather than exact numbers.

The source of these data is ChEMBL document CHEMBL4265935, “Synthesis and evaluation of novel arctigenin derivatives as potential anti-Toxoplasma gondii agents” (Eur J Med Chem, 2018).

The subject of data set [1] is Toxoplasma gondii. Briefly: Antiparasitic activity against Toxoplasma gondii RH infected in Kunming mouse assessed as reduction in serum AST level at 100 mg/kg, po qd administered via gavage for 4 consecutive days measured on day 5. Format: functional, organism-based.
For data set [2], the system named is Toxoplasma gondii. Briefly: Antiparasitic activity against Toxoplasma gondii RH tachyzoites infected in human HeLa cells assessed as cell survival at 100 uM after 24 hrs by trypan blue assay (reference value: 20.8%). The class given is functional.
Data set [3] has as its system Toxoplasma gondii. Briefly: Antiparasitic activity against Toxoplasma gondii RH infected in Kunming mouse assessed as reduction in serum ALT level at 100 mg/kg, po qd administered via gavage for 4 consecutive days measured on day 5. Format: functional, organism-based.
In data set [4] the test system is Toxoplasma gondii. Briefly: Antiparasitic activity against Toxoplasma gondii RH infected in Kunming mouse assessed as increase in survival rate by measuring mortality day at 100 mg/kg, po qd administered via gavage for several consecutive days measured on day 12 (reference value: 9 to 11 days). Format: functional.
Data set [5] relates to Toxoplasma gondii. Briefly: Antiparasitic activity against Toxoplasma gondii RH infected in Kunming mouse assessed as improvement of hepatomegaly at 100 mg/kg, po qd administered via gavage for 4 consecutive days measured on day 5. The class given is functional, organism-based.
For data set [6], the system named is Toxoplasma gondii. Briefly: Antiparasitic activity against Toxoplasma gondii RH infected in Kunming mouse assessed as increase in GSH level in liver at 100 mg/kg, po qd administered via gavage for 4 consecutive days measured on day 5. The class given is functional, organism-based.
For data set [7], the system named is Toxoplasma gondii. Briefly: Antiparasitic activity against Toxoplasma gondii RH tachyzoites by MTT assay. Format: functional, organism-based. For orientation: Formazan colour is commonly taken as a measure of viable cells.
The subject of data set [8] is Toxoplasma gondii. Briefly: Antiparasitic activity against Toxoplasma gondii RH infected in Kunming mouse assessed as inhibition of number of intraperitoneal tachyzoite in abdominal cavity at 100 mg/kg, po qd administered via gavage for 4 consecutive days measured on day 5 by light microscopic analysis relative to control. Format: functional. The settings on record: 120 h.

The test system of data set [9] is HeLa. Briefly: Cytotoxicity against human HeLa cells assessed as reduction in cell viability by MTT assay. Format: cell-based.
The test system of data set [10] is Toxoplasma gondii. Briefly: Antiparasitic activity against Toxoplasma gondii RH tachyzoites infected in human HeLa cells assessed as increase in cell survival at 100 uM after 24 hrs by trypan blue assay relative to spiramycin. The class given is functional.
The nature of data set [11]: Selectivity index, ratio of IC50 for human HeLa cells to ratio of IC50 for Toxoplasma gondii RH tachyzoites. Format: toxicity. Conditions: HeLa cells versus Toxoplasma gondii RH tachyzoites, read-out: Ratio IC50.

For `COc1ccc(C[C@H]2COC(=O)[C@@H]2Cc2ccc(OCC(=O)Nc3ccccc3)c(OC)c2)cc1OC`, the result in [1], in data set [5] and in data set [6] was Active. Moreover, in [2], the survival at 100 µM stood at 69.7%. Also, the result in data set [3] was inactive. The mortality in data set [4] came out at 12 days. Besides, the IC50 is 40.6 µM in data set [7] and not below 600 µM in data set [9]. Also, the inhibition in vivo at 100 mg/kg in data set [8] worked out at 82%. Besides, the Activity in data set [10] came to 29.7%. Also, the selectivity ratio in data set [11] is more than 14.8.

A word on the IC50: it is the concentration that inhibits the measured activity by half. One may read the inhibition in vivo as the share of the control response that was lost under treatment.
